One test concerns S. aureus ATCC 29213. The experiment in a line: MIC by broth microdilution (CLSI), quality control strain S. aureus ATCC 29213. To be noted: multiple values when multiple MIC assays were conducted; for MIC: Staphylococcus aureus, ATCC29213, S. aureus ATCC 29213. It counts as cell-based, Staphylococcus aureus. The method, then: Minimum inhibitory concentrations were determined using the quality control strain S. aureus ATCC 29213 (Table 1) by the broth microdilution method according to guidelines of the Clinical and Laboratory Standards Institute (CLSI) (Cockerill, F. R.; et al., 2012, Methods for dilution antimicrobial susceptibility tests for bacteria that grow aerobically; approved standard-ninth edition. MA07-A9. Clinical and Laboratory Standard Institute, Wayne, Pa.). […] Published quality control ranges for gepotidacin and ciprofloxacin were used to validate each assay. MICs for selected compounds were also determined using a USA 300 strain of MRSA (Hidron, et al., Lancet Infect. Dis. 2009, 9:384-392). Vancomycin was used as an additional control.

Another test deals with USA 300 strain of MRSA. The experiment in a line: MIC by broth microdilution, USA 300 strain of MRSA. Conditions: Staphylococcus aureus, multiple values when multiple MIC assays were conducted, read-out: MIC USA300. The format is cell-based, Staphylococcus aureus. As to the method:
Minimum inhibitory concentrations were determined using the quality control strain S. aureus ATCC 29213 (Table 1) by the broth microdilution method according to guidelines of the Clinical and Laboratory Standards Institute (CLSI) (Cockerill, F. R.; et al., 2012, Methods for dilution antimicrobial susceptibility tests for bacteria that grow aerobically; approved standard-ninth edition. MA07-A9. Clinical and Laboratory Standard Institute, Wayne, Pa.). […] MICs for selected compounds were also determined using a USA 300 strain of MRSA (Hidron, et al., Lancet Infect. Dis. 2009, 9:384-392). Vancomycin was used as an additional control.
(Dilution methods test growth across graded concentrations, often in twofold steps.)

The target of test [1] is T1, Staphylococcus aureus gyrase (Staphylococcus aureus, UniProt P0A0K8+P20831).
T1 construct: purchased Inspiralis, Norwich, UK
T1 sequence (P20831 whole entry): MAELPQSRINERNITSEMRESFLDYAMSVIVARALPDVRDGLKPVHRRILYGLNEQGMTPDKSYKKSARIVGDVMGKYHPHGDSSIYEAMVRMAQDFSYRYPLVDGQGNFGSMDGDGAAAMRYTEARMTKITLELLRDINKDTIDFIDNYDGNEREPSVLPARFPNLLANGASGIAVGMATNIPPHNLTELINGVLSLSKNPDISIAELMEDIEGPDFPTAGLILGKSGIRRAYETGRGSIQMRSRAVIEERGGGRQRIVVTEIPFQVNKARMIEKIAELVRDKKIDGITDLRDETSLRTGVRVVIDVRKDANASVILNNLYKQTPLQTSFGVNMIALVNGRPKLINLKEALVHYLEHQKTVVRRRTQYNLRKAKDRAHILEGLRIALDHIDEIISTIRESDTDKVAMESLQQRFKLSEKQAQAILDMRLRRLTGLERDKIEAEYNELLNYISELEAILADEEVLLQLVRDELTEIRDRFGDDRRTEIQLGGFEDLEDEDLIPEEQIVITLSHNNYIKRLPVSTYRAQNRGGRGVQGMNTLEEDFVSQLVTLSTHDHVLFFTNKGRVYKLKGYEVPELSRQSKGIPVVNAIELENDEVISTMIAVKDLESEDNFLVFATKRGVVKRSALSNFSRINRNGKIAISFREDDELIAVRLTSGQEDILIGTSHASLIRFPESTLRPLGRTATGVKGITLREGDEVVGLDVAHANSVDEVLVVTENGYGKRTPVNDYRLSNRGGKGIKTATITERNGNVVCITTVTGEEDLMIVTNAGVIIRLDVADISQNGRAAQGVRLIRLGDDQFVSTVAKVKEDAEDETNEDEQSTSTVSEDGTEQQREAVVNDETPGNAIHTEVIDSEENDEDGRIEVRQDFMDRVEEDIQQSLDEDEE
T1 sequence (P0A0K8 whole entry): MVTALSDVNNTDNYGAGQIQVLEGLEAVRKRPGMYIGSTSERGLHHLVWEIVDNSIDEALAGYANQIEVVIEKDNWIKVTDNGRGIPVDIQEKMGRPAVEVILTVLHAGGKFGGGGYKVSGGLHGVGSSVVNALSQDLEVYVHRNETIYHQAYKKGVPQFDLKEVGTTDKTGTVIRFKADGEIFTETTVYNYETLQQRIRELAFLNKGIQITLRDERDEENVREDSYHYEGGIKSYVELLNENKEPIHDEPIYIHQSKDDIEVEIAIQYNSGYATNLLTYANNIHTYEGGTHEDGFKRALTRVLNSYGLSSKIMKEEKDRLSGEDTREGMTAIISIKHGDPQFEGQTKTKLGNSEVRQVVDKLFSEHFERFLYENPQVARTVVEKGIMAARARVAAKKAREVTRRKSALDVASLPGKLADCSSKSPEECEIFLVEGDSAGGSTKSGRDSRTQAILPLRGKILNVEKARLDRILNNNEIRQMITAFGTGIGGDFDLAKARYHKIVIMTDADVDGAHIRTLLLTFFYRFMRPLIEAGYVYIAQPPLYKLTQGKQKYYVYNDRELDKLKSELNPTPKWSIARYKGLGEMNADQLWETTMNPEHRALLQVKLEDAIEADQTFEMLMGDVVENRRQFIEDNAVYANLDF
As to the kind of experiment: Staphylococcus aureus gyrase supercoiling assay. The format is biochemical. Conditions: S. aureus DNA gyrase supercoiling; read-out: Gyrase IC50. As to the method:
(§1) A subset of analogs was used to assess the degree of inhibition of DNA gyrase or TopoIV (Inspiralis, Norwich, UK), both to establish the mechanism of action and to evaluate the relative balance of inhibitory activities (Table 1). A subset of compound was also assayed to determine the degree of inhibition of human topoisomerase II (Inspiralis, Norwich, UK)).
(§2) In all experiments, the activity of the enzymes was determined prior to the testing of the compounds and 1 unit (U) was defined as the amount of enzyme required to just fully supercoil, relax or decatenate the substrate (see explanation of gels). This amount of enzyme was initially used in determination of control inhibitor activity. These experiments were performed in duplicate.
(§3) For all assays the final DMSO concentration was 1%. 10 mM stocks of the compounds were serially diluted into 10% DMSO at 1 mM, 0.5 mM, 0.25 mM, 0.1 mM, 0.05 mM, 0.01 mM, 0.005 mM, 0.001 mM, 0.0005 mM, 0.0001 mM and 0.00005 mM. 3.0 μl of each dilution was added to a 30 μl assay.
(§4) Bands were visualised by ethidium staining for 20 minutes and destaining for 20 minutes. Gels were scanned using documentation equipment (GeneGenius, Syngene, Cambridge, UK) and % inhibition levels (where appropriate) were obtained with gel scanning software. (GeneTools, Syngene, Cambridge, UK)
Staphylococcus aureus gyrase supercoiling
1 U of DNA gyrase was incubated with 0.5 μg of relaxed pBR322 DNA in a 30 μl reaction at 37° C. for 30 minutes under the following conditions: 40 mM HEPES. KOH (pH 7.6), 10 mM magnesium acetate, 10 mM DTT, 2 mM ATP, 500 mM potassium glutamate and 0.05 mg/ml BSA.
Each reaction was stopped by the addition of 30 μl chloroform/iso-amyl alcohol (26:1) and 30 μl Stop Dye (40% sucrose (w/v), 100 mM Tris.HCl (pH 7.5), 10 mM EDTA, 0.5 μg/ml bromophenol blue), before being loaded on a 1.0% TAE gel run at 70V for 2 hours.

Test [2] has as its target T2, Staphylococcus aureus Topo IV (Staphylococcus aureus, UniProt P0C1S7+P0C1U9).
T2 construct: purchased Inspiralis, Norwich, UK
As to the kind of experiment: Staphylococcus aureus Topo IV decatenation assay. To be noted: S. aureus Topo IV decatenation; read-out: TopolV Decat IC50. The format is biochemical. As to the method:
as §1, §2, §3, §4
Staphylococcus aureus Topo IV Decatenation Assay
1 U of Topo IV was incubated with 200 ng kDNA DNA in a 30 μl reaction at 37° C. for 30 minutes under the following conditions: 50 mM Tris.HCl (7.5), 5 mM MgCl2, 5 mM DTT, 1.5 mM ATP, 350 mM potassium glutamate and 0.05 mg/ml BSA.
Each reaction was stopped by the addition of 30 μl chloroform/iso-amyl alcohol (26:1) and 30 μl Stop Dye, before being loaded on a 1.0% TAE gel run at 70V for 2 hours.

The next test deals with T3, human topo II (Homo sapiens, UniProt P11388).
T3 construct: purchased Inspiralis, Norwich, UK
T3 sequence (P11388 whole entry): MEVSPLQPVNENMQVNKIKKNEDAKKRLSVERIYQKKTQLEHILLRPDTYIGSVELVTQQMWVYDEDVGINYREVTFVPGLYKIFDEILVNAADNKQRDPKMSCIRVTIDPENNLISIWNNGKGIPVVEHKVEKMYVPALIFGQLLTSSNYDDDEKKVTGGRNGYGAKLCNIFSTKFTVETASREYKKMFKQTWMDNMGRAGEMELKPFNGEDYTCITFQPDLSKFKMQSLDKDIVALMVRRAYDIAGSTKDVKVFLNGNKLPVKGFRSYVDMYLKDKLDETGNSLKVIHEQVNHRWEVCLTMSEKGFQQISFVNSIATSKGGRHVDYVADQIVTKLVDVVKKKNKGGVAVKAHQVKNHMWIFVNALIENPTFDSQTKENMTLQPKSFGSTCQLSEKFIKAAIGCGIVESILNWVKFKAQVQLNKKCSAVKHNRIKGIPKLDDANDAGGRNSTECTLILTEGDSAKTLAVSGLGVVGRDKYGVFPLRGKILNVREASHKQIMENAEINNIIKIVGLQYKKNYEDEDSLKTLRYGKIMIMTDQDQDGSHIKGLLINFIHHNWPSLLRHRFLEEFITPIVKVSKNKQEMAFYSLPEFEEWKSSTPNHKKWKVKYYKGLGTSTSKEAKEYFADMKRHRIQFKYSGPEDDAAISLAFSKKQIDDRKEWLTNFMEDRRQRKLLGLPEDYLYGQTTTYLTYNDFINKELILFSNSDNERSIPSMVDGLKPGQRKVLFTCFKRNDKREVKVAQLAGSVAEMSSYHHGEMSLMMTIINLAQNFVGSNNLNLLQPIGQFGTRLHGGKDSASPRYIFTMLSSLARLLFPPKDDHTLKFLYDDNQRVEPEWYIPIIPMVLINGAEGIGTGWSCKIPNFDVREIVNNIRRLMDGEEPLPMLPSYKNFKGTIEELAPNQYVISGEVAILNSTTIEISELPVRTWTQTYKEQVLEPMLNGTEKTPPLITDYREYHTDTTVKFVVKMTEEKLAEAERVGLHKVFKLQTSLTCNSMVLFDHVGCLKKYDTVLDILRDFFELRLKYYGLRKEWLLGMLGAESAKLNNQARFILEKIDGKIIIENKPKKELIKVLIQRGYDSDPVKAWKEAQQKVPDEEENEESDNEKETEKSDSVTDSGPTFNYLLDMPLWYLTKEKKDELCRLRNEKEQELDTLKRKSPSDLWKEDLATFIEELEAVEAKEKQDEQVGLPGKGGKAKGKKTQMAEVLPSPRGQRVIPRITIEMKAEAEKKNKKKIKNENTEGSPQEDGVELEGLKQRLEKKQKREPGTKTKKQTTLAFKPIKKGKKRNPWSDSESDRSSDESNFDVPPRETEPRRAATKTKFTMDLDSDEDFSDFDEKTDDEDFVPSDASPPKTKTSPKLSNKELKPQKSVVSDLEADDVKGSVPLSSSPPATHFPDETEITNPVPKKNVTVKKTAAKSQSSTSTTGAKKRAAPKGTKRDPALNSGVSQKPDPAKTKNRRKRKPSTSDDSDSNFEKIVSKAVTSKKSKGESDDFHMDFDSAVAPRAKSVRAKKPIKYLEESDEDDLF
As to the kind of experiment: Topoisomerase II (alpha) decatenation assay. It counts as biochemical. Conditions: activity remaining at 100 μM compound; read-out: hTopoll (% activity remaining at 100 μM). The method, then: as §1, §2, §3, §4
Topoisomerase II (Alpha) Decatenation Assay
Each reaction was stopped by the addition of 30 μl chloroform/iso-amyl alcohol (26:1) and 30 μl Stop Dye, before being loaded on a 1.0% TAE gel run at 90V for 2 hours.

The structures appear in SMILES notation. Values after ≈ are worked out from the molar mass of the structure shown.

T2 sequence (P0C1S7 whole entry): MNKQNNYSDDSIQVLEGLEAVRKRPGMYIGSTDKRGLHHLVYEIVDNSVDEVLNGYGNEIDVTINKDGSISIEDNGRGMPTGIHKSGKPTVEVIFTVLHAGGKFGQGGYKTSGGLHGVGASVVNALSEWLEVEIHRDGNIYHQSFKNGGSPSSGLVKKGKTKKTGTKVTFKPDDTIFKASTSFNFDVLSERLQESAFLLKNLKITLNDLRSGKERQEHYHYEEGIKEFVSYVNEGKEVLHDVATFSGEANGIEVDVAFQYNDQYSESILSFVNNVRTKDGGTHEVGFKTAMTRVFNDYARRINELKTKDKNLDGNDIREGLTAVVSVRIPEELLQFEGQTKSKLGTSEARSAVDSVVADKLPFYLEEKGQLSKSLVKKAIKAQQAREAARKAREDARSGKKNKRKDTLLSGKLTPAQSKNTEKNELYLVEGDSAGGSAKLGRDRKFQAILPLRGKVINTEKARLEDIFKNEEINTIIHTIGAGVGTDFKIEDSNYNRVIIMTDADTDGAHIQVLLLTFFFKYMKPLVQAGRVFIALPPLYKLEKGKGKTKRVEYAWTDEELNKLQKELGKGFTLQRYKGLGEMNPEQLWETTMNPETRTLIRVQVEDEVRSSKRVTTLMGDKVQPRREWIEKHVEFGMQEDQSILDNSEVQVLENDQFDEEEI
T2 sequence (P0C1U9 whole entry): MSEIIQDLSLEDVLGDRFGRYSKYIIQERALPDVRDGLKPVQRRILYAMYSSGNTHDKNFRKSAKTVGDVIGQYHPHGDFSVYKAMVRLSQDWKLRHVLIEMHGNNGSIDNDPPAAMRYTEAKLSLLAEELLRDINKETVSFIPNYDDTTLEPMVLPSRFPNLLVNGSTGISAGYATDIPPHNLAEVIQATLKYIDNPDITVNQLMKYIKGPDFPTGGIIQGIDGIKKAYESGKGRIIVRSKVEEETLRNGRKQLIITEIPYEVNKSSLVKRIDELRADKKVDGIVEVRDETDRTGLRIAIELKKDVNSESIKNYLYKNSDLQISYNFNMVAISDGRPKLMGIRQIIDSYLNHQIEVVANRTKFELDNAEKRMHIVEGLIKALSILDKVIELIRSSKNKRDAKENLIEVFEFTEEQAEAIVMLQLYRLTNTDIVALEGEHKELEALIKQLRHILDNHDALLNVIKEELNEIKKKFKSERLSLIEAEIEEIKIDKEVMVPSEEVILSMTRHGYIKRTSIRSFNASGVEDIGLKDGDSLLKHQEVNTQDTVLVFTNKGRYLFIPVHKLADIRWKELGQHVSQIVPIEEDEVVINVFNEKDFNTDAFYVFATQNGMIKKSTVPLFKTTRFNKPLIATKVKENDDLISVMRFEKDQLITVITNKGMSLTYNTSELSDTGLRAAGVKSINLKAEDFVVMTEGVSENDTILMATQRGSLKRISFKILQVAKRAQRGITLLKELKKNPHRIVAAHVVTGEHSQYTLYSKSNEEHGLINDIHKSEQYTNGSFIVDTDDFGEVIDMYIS

With `COc1ccc2nccc(CC[C@H]3OC[C@H](NCc4ccc5c(c4)OC(F)(F)O5)CO3)c2c1` [AB-0080, N-((2,2-difluorobenzo[d][1,3]dioxol-5-yl)methyl)-2-(2-(6-methoxyquinolin-4-yl)ethyl)-trans-1,3-dioxan-5-amine], the minimum inhibitory concentration (MIC) (as a rule, the lowest concentration found to suppress growth) worked out at 1 µg/mL (≈ 2.18 µM) with S. aureus ATCC 29213 and 2 µg/mL (≈ 4.36 µM) in the test with USA 300 strain of MRSA.

For the compound `COc1ccc2nccc(CC[C@H]3OC[C@H](NCc4ccc5c(c4)OCO5)CO3)c2c1` [AB-0079, N-(benzo[d][1,3]dioxol-5-ylmethyl)-2-(2-(6-methoxyquinolin-4-yl)ethyl)-trans-1,3-dioxan-5-amine], the results for the MIC against S. aureus ATCC 29213 and in the test on USA 300 strain of MRSA were 2 µg/mL (≈ 4.73 µM) and 4 µg/mL (≈ 9.47 µM), respectively.

Consider `COc1ccc2ncc(F)c(CC[C@H]3OC[C@H](NCc4ccc(Cl)c(Cl)c4)CO3)c2n1` [AB-0017, N-(3,4-dichlorobenzyl)-2-(2-(3-fluoro-6-methoxy-1,5-naphthyridin-4-yl)ethyl)-trans-1,3-dioxan-5-amine], for which the minimum inhibitory concentration (MIC) against S. aureus ATCC 29213 is 0.25 µg/mL (≈ 0.536 µM); in the test with USA 300 strain of MRSA, 0.125 µg/mL (≈ 0.268 µM).

As for `COc1ccc2ncc(=O)n(CC(O)[C@H]3OC[C@H](NCc4ccc5c(c4)OCCO5)CO3)c2c1` (stereo partly drawn) [AB-0076, 1-(2-(5-(((2,3-dihydrobenzo[b][1,4]dioxin-6-yl)methyl)amino)-trans-1,3-dioxan-2-yl)-2-hydroxyethyl)-7-methoxyquinoxalin-2(1H)-one], the MIC with USA 300 strain of MRSA is 1 µg/mL (≈ 2.13 µM).

`COc1ccc2ncc(=O)n(CC[C@H]3OC[C@H](NCc4ccc5c(c4)OCCO5)CO3)c2c1` [AB-0002, 1-(2-(5-(((2,3-dihydrobenzo[b][1,4]dioxin-6-yl)methyl)amino)-1,3-trans-dioxan-2-yl)ethyl)-7-methoxyquinoxalin-2(1H)-one]: in the test on S. aureus ATCC 29213, the lowest concentration to inhibit growth (MIC) was 4 µg/mL (≈ 8.82 µM). Besides, the 50% inhibitory concentration (IC50) – broadly, the midpoint of a concentration-inhibition curve – is 2010 nM in test [1] and greater than 100000 nM in test [2]. The remaining activity (in general, the activity still measured, relative to the control) at 100 µM on human topo II was 97.5%.

For the compound `COc1ccc2ncc(F)c(C(O)C[C@H]3OC[C@H](NCc4cc5c(cn4)OCCO5)CO3)c2n1` (stereo partly drawn) [AB-0083, 2-(5-(((2,3-dihydro-[1,4]dioxino[2,3-c]pyridin-7-yl)methyl)amino)-trans-1,3-dioxan-2-yl)-1-(3-fluoro-6-methoxy-1,5-naphthyridin-4-yl)ethanol], the results for the MIC against S. aureus ATCC 29213 and with USA 300 strain of MRSA were 0.5 µg/mL (≈ 1.06 µM) and 1 µg/mL (≈ 2.12 µM), respectively.

As to `COc1ccc2ncc(=O)n(CC(O)[C@H]3OC[C@H](NCc4cc5c(cn4)OCCO5)CO3)c2c1` (stereo partly drawn) [AB-0077, 1-(2-(5-(((2,3-dihydro-[1,4]dioxino[2,3-c]pyridin-7-yl)methyl)amino)-trans-1,3-dioxan-2-yl)-2-hydroxyethyl)-7-methoxyquinoxalin-2(1H)-one], the MIC came to 1 µg/mL (≈ 2.13 µM) in the test on S. aureus ATCC 29213 and 2 µg/mL (≈ 4.25 µM) with USA 300 strain of MRSA.

`COc1ccc2nccc(CC[C@H]3OC[C@H](NCc4ccc(C)cc4)CO3)c2c1` [AB-0044]: the MIC against S. aureus ATCC 29213 and in the test on USA 300 strain of MRSA was 1 µg/mL (≈ 2.55 µM) each time.

In the test with S. aureus ATCC 29213, `COc1ccc(CN[C@H]2CO[C@H](CCc3ccnc4ccc(OC)cc34)OC2)cc1` [AB-0031, N-(4-methoxybenzyl)-2-(2-(6-methoxyquinolin-4-yl)ethyl)-trans-1,3-dioxan-5-amine] returned a minimum inhibitory concentration (MIC) of 4 µg/mL (≈ 9.79 µM). Besides, the IC50 in test [1] is 1530 nM; in test [2], greater than 100000 nM. Moreover, the remaining activity at 100 µM on human topo II was determined as 98.7%.

For the compound `COc1ccc2ncc(F)c(C(O)C[C@H]3OC[C@H](NCc4cc5c(cn4)OCCO5)CO3)c2c1` (stereo partly drawn) [AB-0046], the figures for the minimum inhibitory concentration (MIC) with S. aureus ATCC 29213 and in the test with USA 300 strain of MRSA were 0.5 µg/mL (≈ 1.06 µM) and 1 µg/mL (≈ 2.12 µM), respectively. In addition, in test [1], the IC50 was 600 nM. Besides, the remaining activity at 100 µM on human topo II worked out at 88.3%.

Regarding `COc1ccc2nccc(CC[C@H]3OC[C@H](NCc4ccc(OC(F)(F)F)cc4)CO3)c2c1` [AB-0081, 2-(2-(6-methoxyquinolin-4-yl)ethyl)-N-(4-(trifluoromethoxy)benzyl)-trans-1,3-dioxan-5-amine], the MIC amounted to 2 µg/mL (≈ 4.32 µM) in the test with S. aureus ATCC 29213 and 4 µg/mL (≈ 8.65 µM) in the test with USA 300 strain of MRSA.

For `COc1ccc2nccc(CC[C@H]3OC[C@H](NCc4ccc(C#N)cc4)CO3)c2c1` [AB-0047, 4-(((2-(2-(6-methoxyquinolin-4-yl)ethyl)-trans-1,3-dioxan-5-yl)amino)methyl)benzonitrile], the MIC in the test on S. aureus ATCC 29213 was greater than 64 µg/mL. For the same compound, the half-inhibitory concentration (IC50) in test [1] was 13300 nM; in test [2], greater than 100000 nM. Moreover, the remaining activity at 100 µM on human topo II turned out to be 88.4%.

In the case of `COc1ccc2ncc(F)c(C(O)C[C@H]3OC[C@H](NCc4ccc(Cl)c(Cl)c4)CO3)c2c1` (stereo partly drawn) [AB-0019, 2-(5-((3,4-dichlorobenzyl)amino)-trans-1,3-dioxan-2-yl)-1-(3-fluoro-6-methoxyquinolin-4-yl)ethan-1-ol], the MIC is no more than 0.25 µg/mL in the test with S. aureus ATCC 29213 and 0.5 µg/mL (≈ 1.04 µM) with USA 300 strain of MRSA.

Take `COc1ccc2nccc(CC[C@H]3OC[C@H](NCc4ccc(C(C)(C)C)cc4)CO3)c2c1` [AB-0082, N-(4-(tert-butyl)benzyl)-2-(2-(6-methoxyquinolin-4-yl)ethyl)-trans-1,3-dioxan-5-amine]: the MIC with S. aureus ATCC 29213 came out at 2 µg/mL (≈ 4.6 µM); in the test with USA 300 strain of MRSA, 4 µg/mL (≈ 9.2 µM).

In the case of `COc1ccc2nccc(CC[C@H]3OC[C@H](NCc4ccc(C(F)(F)F)cc4)CO3)c2c1` [AB-0071, 2-(2-(6-methoxyquinolin-4-yl)ethyl)-N-(4-(trifluoromethyl)benzyl)-trans-1,3-dioxan-5-amine], the MIC against S. aureus ATCC 29213 worked out at 1 µg/mL (≈ 2.24 µM); in the test with USA 300 strain of MRSA, 2 µg/mL (≈ 4.48 µM).

Take `COc1ccc2nccc(/C=C/[C@H]3OC[C@H](NCc4ccc(Cl)c(Cl)c4)CO3)c2c1` [AB-0009, N-(3,4-dichlorobenzyl)2-((E)-2-(6-methoxyquinolin-4-yl)vinyl)-trans-1,3-dioxan-5-amine]: the values for the MIC in the test with S. aureus ATCC 29213 and in the test with USA 300 strain of MRSA were no more than 0.25 µg/mL and 0.5 µg/mL (≈ 1.12 µM), respectively.

Turning to `COc1ccc2nccc(CC[C@H]3OC[C@H](NCc4ccc(C(F)F)cc4)CO3)c2c1` [AB-0085, N-(4-(difluoromethyl)benzyl)-2-(2-(6-methoxyquinolin-4-yl)ethyl)-trans-1,3-dioxan-5-amine], the values for the MIC against S. aureus ATCC 29213 and with USA 300 strain of MRSA were 2 µg/mL (≈ 4.67 µM) and 4 µg/mL (≈ 9.34 µM), respectively.

For `COc1ccc2nccc(/C=C/[C@H]3OC[C@H](NCc4ccc5c(c4)OCCO5)CO3)c2c1` [AB-0010, N-((2,3-dihydrobenzo[b][1,4]dioxin-6-yl)methyl)-2-((E)-2-(6-methoxyquinolin-4-yl)vinyl)-trans-1,3-dioxan-5-amine], the “MIC 29213” value in the test with S. aureus ATCC 29213 (S. aureus ATCC 29213) was 2 µg/mL (≈ 4.6 µM). Moreover, the MIC with S. aureus ATCC 29213 and in the test with USA 300 strain of MRSA was 1 µg/mL (≈ 2.3 µM) throughout.

`COc1ccc2nccc(CC[C@H]3OC[C@H](NCc4ccc(F)c(Cl)c4)CO3)c2c1` [AB-0023, N-(3-chloro-4-fluorobenzyl)-2-(2-(6-methoxyquinolin-4-yl)ethyl)-trans-1,3-dioxan-5-amine] had an MIC against S. aureus ATCC 29213 of 8 µg/mL (≈ 18.6 µM). Further, the IC50 in test [1] was 2100 nM; in test [2] it was greater than 100000 nM. Further, the remaining activity at 100 µM at human topo II was 97.7%.

(Values after patent publication US11352349B2, “Type II topoisomerase inhibitors and methods of making and using thereof” (Ohio State Innovation Foundation, priority 2017, dated 2022).)
